System: low-density lipoprotein (LDL)
Assay: LDL oxidation (lipid peroxidation) assay of Cu-metallated APP proteins
Format: biochemical
Settings: for % of lipid peroxidation by control: Cu-metallated proteins, 0.5 mg/mL LDL, 24 hr, 37° C., control LDL in PBS alone = 100; for effect on lipid peroxidation (Cu-reducing) activity of the CuBD, in words: mutations incorporated into APP133-189
Description: Mutagenesis experiments were performed to test this. His147 and His151 were mutated to Asn, Tyr168 was mutated to Phe, and Met170 was mutated to Leu. These mutations were incorporated into APP133-189. Recombinant protein was expressed in Pichia pastoris as described above, and purified by standard chromatography methods. The identities of the purified proteins were verified by mass spectrometry. The Cu-reducing activity of the CuBD was tested in a lipid peroxidation assay.
Two different assays of metal mediated lipid peroxidation were utilized. The first assay involved measuring the oxidative activity of metallated proteins. This was determined by mixing dialyzed metallated or native protein at designated concentrations with 0.5 mg/mL low-density lipoprotein (LDL) for 24 hr (37° C.). Lipid peroxidation was measured using a lipid peroxidation assay kit (LPO 486, Oxis International Inc. Portland, Oreg.), as per kit instructions.
The control is LDL (0.5 mg/mL) in PBS buffer alone. […] APP133-189 induced strong lipid peroxidation (3-fold above background).

Row | Substance | % of lipid peroxidation by control | lipid peroxidation above background (background = APP28-123 negative control) | effect on lipid peroxidation (Cu-reducing) activity of the CuBD, in words
1 | APP133-189: truncated version of the CuBD of APP, recombinant protein expressed in Pichia pastoris (CKFLHQERMDVCETHLHWHTVAKETCSEKSTNLHDYGMLLPCGIDKFRGVEFVCCPL; UniProt P05067 133-189, looked up, fragment) | 312% | 3 fold | –
2 | His147Asn: APP133-189 with His147 mutated to Asn | 87% | – | abolished this activity
3 | His151Asn: APP133-189 with His151 mutated to Asn | 196% | – | affected the activity, but to a lesser extent
4 | Met170Leu: APP133-189 with Met170 mutated to Leu | 142% | – | significant effect on the activity
5 | Tyr168Phe: APP133-189 with Tyr168 mutated to Phe | 111% | – | significant effect on the activity

Source: patent US20070015688A1, “Method for screening for inhibitors of alzheimer's disease” (priority 2000, published 2007)
